Source: US20060045953A1 (priority 2004, published 2006)

Molecular target: T1, hT1R1/hT1R3 umami receptor (Homo sapiens, UniProt Q7RTX0+Q7RTX1)
T1 construct: expressed in transfected cells; host or cells: HEK293 derivative stably expressing Gα15, clone I-17, expression induced with mifepristone
T1 sequence (Q7RTX1 21-841): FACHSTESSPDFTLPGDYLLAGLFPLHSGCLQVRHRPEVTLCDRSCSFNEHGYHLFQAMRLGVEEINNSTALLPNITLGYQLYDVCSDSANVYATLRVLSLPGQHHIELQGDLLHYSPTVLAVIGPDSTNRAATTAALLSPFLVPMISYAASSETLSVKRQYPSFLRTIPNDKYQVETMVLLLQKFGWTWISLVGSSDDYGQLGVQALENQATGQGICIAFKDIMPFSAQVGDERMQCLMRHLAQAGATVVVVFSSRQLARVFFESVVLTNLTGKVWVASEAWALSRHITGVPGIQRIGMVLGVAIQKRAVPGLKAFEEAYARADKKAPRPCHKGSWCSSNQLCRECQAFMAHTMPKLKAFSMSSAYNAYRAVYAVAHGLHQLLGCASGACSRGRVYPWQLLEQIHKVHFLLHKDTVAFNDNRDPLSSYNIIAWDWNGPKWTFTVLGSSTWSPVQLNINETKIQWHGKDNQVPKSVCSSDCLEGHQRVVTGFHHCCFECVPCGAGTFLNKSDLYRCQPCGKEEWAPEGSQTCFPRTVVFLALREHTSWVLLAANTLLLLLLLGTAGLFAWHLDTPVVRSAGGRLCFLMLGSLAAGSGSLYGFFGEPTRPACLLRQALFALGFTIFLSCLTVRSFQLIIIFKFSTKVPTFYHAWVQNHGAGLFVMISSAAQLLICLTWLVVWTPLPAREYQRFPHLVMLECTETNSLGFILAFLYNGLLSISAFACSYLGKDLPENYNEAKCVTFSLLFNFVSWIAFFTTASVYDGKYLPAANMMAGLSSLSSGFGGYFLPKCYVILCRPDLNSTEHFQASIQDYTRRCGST
T1 sequence (Q7RTX0 21-852): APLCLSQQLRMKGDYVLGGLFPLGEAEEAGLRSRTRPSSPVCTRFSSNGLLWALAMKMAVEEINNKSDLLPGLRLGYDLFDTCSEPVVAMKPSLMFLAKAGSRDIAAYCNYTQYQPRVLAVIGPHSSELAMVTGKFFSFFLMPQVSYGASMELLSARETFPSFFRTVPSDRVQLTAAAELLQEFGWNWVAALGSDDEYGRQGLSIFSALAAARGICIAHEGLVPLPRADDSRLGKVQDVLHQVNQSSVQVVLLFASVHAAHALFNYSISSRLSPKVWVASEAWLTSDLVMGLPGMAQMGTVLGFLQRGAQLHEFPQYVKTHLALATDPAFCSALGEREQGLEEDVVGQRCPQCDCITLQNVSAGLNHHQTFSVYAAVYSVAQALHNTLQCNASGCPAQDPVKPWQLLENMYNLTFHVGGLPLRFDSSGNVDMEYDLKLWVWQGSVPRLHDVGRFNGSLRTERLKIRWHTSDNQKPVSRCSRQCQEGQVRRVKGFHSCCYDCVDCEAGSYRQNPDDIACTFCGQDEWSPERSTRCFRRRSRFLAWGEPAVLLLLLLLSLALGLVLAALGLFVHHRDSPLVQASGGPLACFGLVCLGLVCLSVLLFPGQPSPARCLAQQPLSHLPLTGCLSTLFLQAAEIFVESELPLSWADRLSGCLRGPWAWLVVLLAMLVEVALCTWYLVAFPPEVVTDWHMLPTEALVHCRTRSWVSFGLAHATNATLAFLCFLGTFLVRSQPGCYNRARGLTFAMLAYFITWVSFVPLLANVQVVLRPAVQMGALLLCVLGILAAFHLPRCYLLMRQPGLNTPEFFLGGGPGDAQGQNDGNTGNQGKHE
Assay: In vitro hT1R1/hT1R3 umami taste receptor activation assay (FLIPR, dose response)
Format: cell-based
Conditions: read-out: EC50 for activation of a hT1R1/hT1R3 umami receptor expressed in an HEK293 cell line
Source text: In order to identify new savory flavoring agents and enhancers, including compounds with savory agonist and enhancer activities (dual activity), the compounds of Formula (I) were screened in primary assays and secondary assays including compound dose response and enhancement assay. In a primary assay for potential ability to modulate umami taste, amide compounds of Formula (I) that can be either savory flavoring agents in their own right or flavor enhancers of MSG are identified and scores of their activities are given as percentage of the maximum MSG intensity (%). In compound dose response, an EC50 is calculated to reflect the potency of the compound as a savory agonist or enhancer.
An HEK293 cell line derivative (See e.g., Chandrashekar, et al., Cell (2000) 100: 703-711) which stably expresses Gα15 and hT1R1/hT1R3 under an inducible promoter (see WO 03/001876 A2) was used to identify compounds with savory tasting properties.
For dose-responses analysis, stimuli were presented in duplicates at 10 different concentrations ranging from 1.5 nM to 30 μM. Activities were normalized to the response obtained with 60 mM monosodium glutamate, a concentration that elicits maximum receptor response. […] Identical results were obtained when analyzing the dose-response data using commercially available software for non-linear regression analysis such as GraphPad PRISM (San Diego, Calif.).

EC50 | Compound
440 nM | CCCC(CCC)NC(=O)/C=C/c1cccs1 [Example 77, (E)-N-(heptan-4-yl)-3-(thiophen-2-yl)acrylamide]
1100 nM | COc1ccc(/C=C/C(=O)N[C@@H](CO)Cc2ccccc2)cc1 [Example 81, N-(1-Benzyl-2-hydroxy-ethyl)-3-(4-methoxy-phenyl)-acrylamide]
900 nM | CCCC(CCC)NC(=O)/C=C/c1ccccc1OC [Example 86, 3-(2-Methoxy-phenyl)-N-(1-propyl-butyl)-acrylamide]
970 nM | CCCC(CCC)NC(=O)/C=C/c1ccc(OC)c(OC)c1 [Example 87, 3-(3,4-Dimethoxy-phenyl)-N-(1-propyl-butyl)-acrylamide]
2800 nM | CCCC(CCC)NC(=O)c1ccc(C)c(C)n1 [Example 91, N-(heptan-4-yl)-5,6-dimethylpicolinamide]
7600 nM | CCCC(CCC)NC(=O)c1ccc(N(CC)CC)cc1 [Example 92, 4-(diethylamino)-N-(heptan-4-yl)benzamide]
1390 nM | CCCC(CCC)NC(=O)c1ccc(OC)cc1C#N [Example 97, 2-cyano-N-(heptan-4-yl)-4-methoxybenzamide]
7800 nM | CCCC(CCC)NC(=O)c1cc(C)nn1C [Example 99, N-(heptan-4-yl)-1,3-dimethyl-1H-pyrazole-5-carboxamide]
3200 nM | CCCC(CCC)NC(=O)c1ccc2ncccc2c1 [Example 101, N-(heptan-4-yl)quinoline-6-carboxamide]
15800 nM | CCCC(CCC)NC(=O)c1cnc2ccccc2c1 [Example 102, N-(heptan-4-yl)quinoline-3-carboxamide]
5600 nM | COc1ccc(C(=O)NCCSCc2ccco2)cc1C [Example 106, N-(2-(furan-2-ylmethylthio)ethyl)-4-methoxy-3-methylbenzamide]
2200 nM | O=C(NCc1ccc(OC(F)(F)F)cc1)c1ccsc1 [Example 107, Thiophene-3-carboxylic acid 4-trifluoromethoxy-benzylamide]
2860 nM | COc1ccc(CNC(=O)c2ccc(-c3ccccn3)s2)c(OC)c1 [Example 109, 5-Pyridin-2-yl-thiophene-2-carboxylic acid 2,4-dimethoxy-benzylamide]
3860 nM | CCc1ccc(CCNC(=O)c2ccc3c(c2)OCO3)cc1 [Example 112, Benzo[1,3]dioxole-5-carboxylic acid [2-(4-ethyl-phenyl)-ethyl]-amide]
2500 nM | CCCC(NC(=O)c1ccc(OC)c(C)c1)c1ccccc1 (centres unmarked) [Example 113, 4-Methoxy-3-methyl-N-(1-phenyl-butyl)-benzamide]
1540 nM | CCCC(NC(=O)c1ccc(OC)c(C)c1)c1ccccn1 (centres unmarked) [Example 114, 4-Methoxy-3-methyl-N-(1-pyridin-2-yl-butyl)-benzamide]
3900 nM | CCCC(NC(=O)c1ccc(OCC)c(C)c1)c1ccc(OC)cc1 (centres unmarked) [Example 116, 4-Ethoxy-N-[1-(4-methoxy-phenyl)-butyl]-3-methyl-benzamide]
2800 nM | COc1ccc([C@@H](C)NC(=O)c2ccc(OC)c(C)c2)cc1 [Example 117, 4-Methoxy-N-[1-(R)-(4-methoxy-phenyl)-ethyl]-3-methyl-benzamide]

More lines, now with the values behind:

Compound | EC50
CCCCC/C=C/C(=O)N[C@H](CC(C)C)C(=O)OC [Example 78, (R,E)-methyl 4-methyl-2-oct-2-enamidopentanoate] | 920 nM
CCCC(CC(C)C)NC(=O)/C=C/c1ccc(OC)cc1 (centres unmarked) [Example 79, 3-(4-Methoxy-phenyl)-N-(3-methyl-1-propyl-butyl)-acrylamide] | 1840 nM
COC[C@@H](CC(C)C)NC(=O)/C=C/c1ccc(OC)cc1 [Example 80, N-(1-Methoxymethyl-3-methyl-butyl)-3-(4-methoxy-phenyl)-acrylamide] | 900 nM
CCOc1ccc(/C=C/C(=O)NC(CC)CC)cc1 [Example 82, 3-(4-Ethoxy-phenyl)-N-(1-ethyl-propyl)-acrylamide] | 1350 nM
COC(=O)[C@@H](CC(C)C)NC(=O)/C=C/c1cccs1 [Example 83, 4-Methyl-2-(3-thiophen-2-yl-acryloylamino)-pentanoic acid methyl ester] | 590 nM
CC(C)/C=C/C(=O)NC1CCCc2ccccc21 (centres unmarked) [Example 84, 4-Methyl-pent-2-enoic acid (1,2,3,4-tetrahydro-naphthalen-1-yl)-amide] | 1500 nM
CCCC(CCC)NC(=O)/C=C/c1ccccc1F [Example 85, 3-(2-Fluoro-phenyl)-N-(1-propyl-butyl)-acrylamide] | 160 nM
COc1ccccc1/C=C/C(=O)NC1CCCCC1C (centres unmarked) [Example 89, 3-(2-Methoxy-phenyl)-N-(2-methyl-cyclohexyl)-acrylamide] | 3400 nM
CCCC(CCC)NC(=O)c1ccc2occc2c1 [Example 90, N-(heptan-4-yl)benzofuran-5-carboxamide] | 1190 nM
COC(=O)[C@@H](CC(C)C)NC(=O)c1cc(OC)nc(OC)c1 [Example 93, (R)-methyl 2-(2,6-dimethoxyisonicotinamido)-4-methylpentanoate] | 1910 nM
CCCC(CCC)NC(=O)c1ccc(OC)nc1 [Example 94, N-(heptan-4-yl)-6-methoxynicotinamide] | 2660 nM
CCCC(CCC)NC(=O)c1cnc(C)c(C)n1 [Example 95, 5,6-dimethylpyrazine-2-carboxylic acid (1-propylbutyl)amide] | 1010 nM
CCCC(CCC)NC(=O)c1ccc(C)nc1Cl [Example 96, 2-chloro-N-(heptan-4-yl)-6-methylnicotinamide] | 3900 nM
CCCC(CCC)NC(=O)c1csc(C)n1 [Example 100, N-(heptan-4-yl)-2-methylthiazole-4-carboxamide] | 7200 nM
CCCC(CCC)NC(=O)c1nccc2ccccc12 [Example 103, N-(heptan-4-yl)isoquinoline-1-carboxamide] | 14200 nM
O=C(NCc1ccc(OC(F)(F)F)cc1)c1cccs1 [Example 105, N-(4-(trifluoromethoxy)benzyl)thiophene-2-carboxamide] | 2400 nM
COc1ccc(CNC(=O)c2sccc2C)c(OC)c1 [Example 108, 3-Methyl-thiophene-2-carboxylic acid 2,4-dimethoxy-benzylamide] | 5600 nM
COc1ccc(CNC(=O)c2ccnn2C)c(OC)c1 [Example 110, 2-Methyl-2H-pyrazole-3-carboxylic acid 2,4-dimethoxy-benzylamide] | 6000 nM
Cc1cc(C(=O)NC(C)CCc2ccccc2)ccc1O (centres unmarked) [Example 111, 4-Hydroxy-3-methyl-N-(1-methyl-3-phenyl-propyl)-benzamide] | 2700 nM
CCCC(NC(=O)c1ccc2c(c1)OCO2)c1ccc(OC)cc1 (centres unmarked) [Example 115, Benzo[1,3]dioxole-5-carboxylic acid [1-(4-methoxy-phenyl)-butyl]-amide] | 4120 nM
